Source: patent US12233041B2, “Disulfonate stilbenes for use in the treatment of proliferative diseases” (UNIVERSITÉ DE NANTES, priority 2018, dated 2025)
Values belong to the molecule of their own block, whether it stands above or below them.

What was measured:
[1] = tested on: DU145 prostate cancer cell line; assay: Cytotoxicity, MTT assay; assay type: cell-based; conditions: DU-145 cells, 50 μM for 3 days
Method: (§1) Prostate cancer cells DU145 (carcinoma) and fibroblast cells were cultured in […] (RPMI 1640 medium) supplemented with 10% fetal bovine serum (FBS) and 1% penicillin/streptomycin, and were grown at 37° C. with 5% CO2.
(§2) Tested molecules were dissolved and stored in DMSO at 20 mM concentration.
(§3) DU145 and fibroblast cells were seeded at 5×10^3 cells/well in 100 μl of medium in standard 96-well plates. The plates were incubated 24 h at 37° C. at an atmosphere of 5% CO2. Molecule solutions diluted in DMSO were serially diluted by RPMI 1640 medium from 60 μM to 0.02 μM and were added in 100 μl RPMI in quadruplicate.
After 72 h of incubation, 20 μL of 5 mg mL-1 MTT was added to each well according to the manufacturer's instructions. After 2 h of incubation at 37° C., the medium was removed, and 200 μl DMSO was added to each well to dissolve formazan crystals. The absorbance at 540 nm of each well was then monitored using an EnSpire multimode plate reader. Absorbance of each well was expressed as percentage of the control (wells with untreated cells), and the 50% inhibitory concentration (IC50) was determined. […] All data were expressed as the mean values±standard deviation. The IC50 values were calculated by linear regression analysis of the concentration-log response curves using the software GraphPad InStat 3.0. […]

DU-145 cell line = assay: Clonogenicity test, sensitizing effect with an antineoplastic drug; assay type: cell-based; conditions: DU-145, cisplatin alone; read-out: IC50 (clonogenic survival, cisplatin)
Method: Clonogenicity tests are carried out against several model cell lines derived from cancer including prostate cancer (DU-145). Cells are exposed to an anti-cancer agent targeting DNA (cisplatin or camptothecin). Damaged cells are counted and seeded in the presence or in the absence of B-2 in triplicate culture plates. After about two weeks of incubation at 37° C. the number of clones formed is counted. Each cell capable of repairing its lesions will then form a clone. After counting, the percentage of survival will be calculated relative to the control condition for which it is considered that there is 100% survival.
The main interest of RAD51 protein inhibitors is the sensitization of chemo-resistant or radio-resistant cancerous cell lines. Clonogenicity evaluation was carried out on the DU-145 cell line treated with cisplatin treatment in the presence or in the absence of disulfonate stilbene B-2 (RAD51 protein inhibitor).
DU-145 cell line was treated with camptothecin in the presence or in the absence of disulfonate stilbene B-2 (RAD51 protein inhibitor) and the clonogenic cell survival was determined.

[2] = tested on: RAD51 foci in DU-145 cells; assay: Rad51 foci quantification by immunofluorescence; assay type: cell-based; conditions: DU-145, cisplatin 30 μM for 1 hour, fixed after 18 h
Method: DU-145 cells were grown on coverslips (Life Technologies) at a density of 5×10^3 cells per well in medium (RPMI) supplemented with 10% fetal bovine serum (Gibco-Invitrogen). Cells were treated with Cisplatin at 30 μM for 1 hour in presence or in absence of RAD51 inhibitor B-2 at 20 μM, and then the medium was replaced with molecule-free medium. After 18 h, cells were washed once in PBS for 5 min and fixed with ethanol absolute for 25 min.
The fixed cells were incubated for 1 h in the PBS buffer containing 1:1000 diluted anti-RAD51 antibody at room temperature. After three 5-min washes in PBS, slides were incubated with PBS solution containing the secondary antibody conjugated with AlexaFluor 555 ([…]) for 45 min in dark room. […] The images were recorded with NIS Element software (Version 3.6, Nikon, Tokyo, Japan). The quantification of RAD51 foci was processed with a program derived from Fiji-ImageJ software (NIH, Bethesda, Maryland, USA). […]
The treatment with Cisplatin alone induces a high level of RAD51 foci, whereas this level is decreased when the treatment is associated with B-2 20 μM. After the quantification of the number of RAD51 foci per cell, the number of cells containing more than 20 RAD51 foci was determined.

HsRad51 = biological target: T1, HsRad51 (Homo sapiens, UniProt Q06609); assay: RAD51 oligomerization by SDS-PAGE gel after crosslink; assay type: biochemical; conditions: 2.5 μM HsRad51, disuccinimidyl suberate crosslink, SDS-PAGE/Western blot; FIG. 1
T1 sequence (Q06609 1-339): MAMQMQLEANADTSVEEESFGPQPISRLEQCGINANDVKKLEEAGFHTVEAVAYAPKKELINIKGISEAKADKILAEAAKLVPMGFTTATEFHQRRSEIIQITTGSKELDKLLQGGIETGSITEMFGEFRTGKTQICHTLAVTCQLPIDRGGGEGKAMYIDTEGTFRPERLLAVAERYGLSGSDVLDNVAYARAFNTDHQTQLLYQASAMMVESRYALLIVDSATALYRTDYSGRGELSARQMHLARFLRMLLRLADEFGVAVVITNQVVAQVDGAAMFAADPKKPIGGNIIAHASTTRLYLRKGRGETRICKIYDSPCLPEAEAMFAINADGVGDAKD
Method: The reaction was performed at room temperature. 2.5 μm HsRad51 was incubated with the indicated concentrations of tested compounds for 10 min in a buffer containing 20 mm sodium phosphate, 50 mm NaCl, 1 mm MgCl 2, and 1 mm ATP. The cross-linking reactions were initiated by the addition of disuccinimidyl suberate (50 μm) and allowed to proceed for 30 min. Reactions were quenched by the addition of Tris-HCl (pH 7.5, final concentration: 50 mm) followed by subsequent incubations for 15 min. The products were then separated by 12% SDS polyacrylamide gel electrophoresis and detected by Western blot with mouse monoclonal anti-Rad51 antibody (NeoMarkers) and anti-mouse Alexa-Fluor 700-conjugated secondary antibody (Molecular Probes, Eugene, OR). The cross-linked dimer was quantified by an Odyssey Infrared Imaging System scanner (Li-Cor Biosciences) (Martinez, S. F. et al., “Targeting human Rad51 by specific DNA aptamers induces inhibition of homologous recombination”, Biochimie, December 2010, Vol. 92, No. 12, pp. 1832-1838).
The SDS-PAGE electrophoresis after crosslink maintains and immobilizes the RAD51 protein complexes and thus allows visualization of the degree of oligomerization (polymer formation) of the RAD51 protein. The effect of RAD51 protein inhibitors B-1, B-2, B-3, DIDS and X-4 on this key step of RAD51 protein recombinase activity has thus been evaluated. The results are presented on FIG. 1.

Rad51 = biological target: T2, Rad51 (Homo sapiens, UniProt Q06609); assay: DNA invasion by D-loop assay (strand exchange); assay type: biochemical; conditions: 0.5 μM Rad51, 1 μM 100-ssDNA, 37° C.; read-out: IC50 (RAD51 protein inhibition, D-loop formation)
T2 sequence (Q06609 1-339): T1 sequence (Q06609 1-339)
Method: Labeled 100-ssDNA** (1 μM) was incubated with 0.5 μM Rad51 in presence or absence of the indicated amounts of the corresponding molecule in 10 μL of standard reaction buffer containing 20 mM Tris-HCl (pH 8), 1 mM ATP, 1 mM DTT, 1 mM CaCl2) at 37° C. for 20 min. The reaction was initiated by adding supercoiled pPB4.3 DNA (200 μM in bp). After incubation of 30 min at 37° C., the reactions were stopped and deproteinized by a stop solution (10 mM Tris-HCl pH 8, 10 mM MgCl2, 1% SDS, and 1 mg/mL proteinase K. The reaction mixtures were further incubated for 15 min at 37° C. After adding 5-fold loading dye (0.05% bromophenol blue, 8% glycerol, 1 mM EDTA), the reaction products were separated by electrophoresis on 1% agarose gel. The electrophoresis was carried out in 0.5×TAE buffer (20 mM Tris, 10 mM acetic acid and 1 mM EDTA) at 100 V for 2 h. The labeled products (100-ssDNA** and D-loop) were visualized and quantified by the detection of the IRD-700 dye with the 700 nm infrared fluorescent detection channel of an Odyssey Infrared Imager (LI-COR) (Normand, A. et al., Biochemical Pharmacology, October 2014, Vol. 91, No. 3, pp. 293-300).
The “D-loop” in vitro test allows the quantification of the formation of the strand exchange structure (D-loop) and thus the determination of the inhibitory power of a molecule during the strand exchange step of the recombinase mechanism. IC50 measuring the RAD51 protein inhibition in presence of compounds A-1 to A-5, […] and DIDS are then calculated.

fibroblast cells = assay: Cytotoxicity, MTT assay; assay type: cell-based; conditions: 50 μM for 3 days, FIG. 7
Method: as §1, §2, §3
After 72 h of incubation, 20 μL of 5 mg mL-1 MTT was added to each well according to the manufacturer's instructions. After 2 h of incubation at 37° C., the medium was removed, and 200 μl DMSO was added to each well to dissolve formazan crystals. The absorbance at 540 nm of each well was then monitored using an EnSpire multimode plate reader. Absorbance of each well was expressed as percentage of the control (wells with untreated cells), and the 50% inhibitory concentration (IC50) was determined. […] All data were expressed as the mean values±standard deviation. The IC50 values were calculated by linear regression analysis of the concentration-log response curves using the software GraphPad InStat 3.0.

Compound: O=c1c2ccccc2nc(/C=C/c2cccnc2)n1Cc1ccccc1 [BPQ, (E)-3-benzyl-2-(2-(pyridin-3-yl)vinyl)quinazolin-4(3H)-one]
mortality of cells [1]: 90% | cytotoxic effect ([1]; FIG. 6): high cytotoxicity

Compound: N.N.[Cl][Pt][Cl] [Cisplatin, reference compound]
IC50 (DU-145 cell line): 33 µM | level of RAD51 foci [2]: high level

oligomerization state of RAD51 protein (HsRad51): reduction | IC50 (Rad51): 1 µM
Compound: O=S(=O)(O)c1cc(N=C=S)ccc1C=Cc1ccc(N=C=S)cc1S(=O)(=O)O [DIDS, 4,4′-Diisothiocyano-2,2′-stilbene disulfonic acid, reference compound]
cytotoxic effect (fibroblast cells): has a cytotoxic effect
